Source: PubChem BioAssay AID328 (DTP/NCI, 2004)
Values joined by “and” are separate entries in the source; they are usually repeats but may differ in a detail not shown here. Equal values may be shown once. Toxic doses and inconclusive results are not listed.

Test system: BDF1 mice, P388 leukemia ip, median survival T/C
Assay: NCI In Vivo Anticancer Drug Screen. Data for tumor model P388 Leukemia (intraperitoneal) in B6D2F1 (BDF1) mice
Conditions: endpoint: median survival time, higher = longer survival
Procedure, shortened: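 Steps: implant the tumour, treat one group with compound and another with vehicle, record survival, then divide treated by control.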

[1] = dose: 12.5 mg/kg/injection, schedule: Q01DX009 (ip), vehicle: Klucel (hydroxypropylcellulose) (HPC)
[2] = dose: 25.0 mg/kg/injection, schedule: Q01DX009 (ip), vehicle: Klucel (hydroxypropylcellulose) (HPC)
[3] = dose: 50.0 mg/kg/injection, schedule: Q01DX009 (ip), vehicle: Klucel (hydroxypropylcellulose) (HPC)
[4] = dose: 12.5 mg/kg/injection, schedule: Q01DX009 (ip), vehicle: saline
[5] = dose: 50.0 mg/kg/injection, schedule: Q01DX009 (ip), vehicle: saline
[6] = dose: 50.0 mg/kg/injection, schedule: Q01DX009 (ip), vehicle: saline with Tween-80
[7] = dose: 100.0 mg/kg/injection, schedule: Q01DX009 (ip), vehicle: saline with Tween-80
[8] = dose: 200.0 mg/kg/injection, schedule: Q01DX009 (ip), vehicle: saline with Tween-80
[9] = dose: 100.0 mg/kg/injection, schedule: Q01DX009 (ip), vehicle: saline
[10] = dose: 200.0 mg/kg/injection, schedule: Q01DX009 (ip), vehicle: saline

Question: With `CCSc1nc2ccc(Nn3nnnc3-c3ccccc3)cc2s1` as the compound, how does the T/C [1] read?
Answer: 272 % of control

Question: What about the T/C [2] of the same compound?
Answer: 98 % of control

Question: And the T/C [3]?
Answer: 118 % of control

Question: With `CC(/C=N/N=C(N)N)=N\N=C(N)N.O=C([O-])C(=O)[O-].O=C([O-])C(=O)[O-].[Nb+5].[O-][O-].[O-][O-]` as the compound, how does the T/C [4] read?
Answer: 97 % of control

Question: And the T/C [5]?
Answer: 90 % of control

Question: Which results are given for `O=C(Nc1cccc(Cl)c1)ON1CCCCC1`?
Answer: T/C [6]: 106 % of control; T/C [7]: 97 % of control; T/C [8]: 100 % of control

Question: Which T/C [4] does the source give for `COCC1OC(OC2OCC3OC4(OCC(O)(C(C)OC)C5OCOC54)OC3C2OC)C(OC)C(O)C1OC1OC(C)C(OC)C(OC2OC(C)C3OC4(CC(O)C(OC5CC(OC6CC(C)([N+](=O)[O-])C(OC)C(C)O6)C(OC(=O)c6c(C)c(Cl)c(O)c(Cl)c6OC)C(C)O5)C(C)O4)OC3(C)C2O)C1O` (centres undefined) here?
Answer: 115 % of control

Question: With `O=C(CI)Nc1ccc(Br)cc1` as the compound, how does the T/C (dose: 8.75 mg/kg/injection, schedule: Q01DX009 (ip), vehicle: Klucel (hydroxypropylcellulose) (HPC)) read?
Answer: 104 % of control

Question: What about the T/C (dose: 17.5 mg/kg/injection, schedule: Q01DX009 (ip), vehicle: Klucel (hydroxypropylcellulose) (HPC)) of the same compound?
Answer: 104 % of control

Question: What about the T/C (dose: 26.25 mg/kg/injection, schedule: Q04DX003 (ip), vehicle: Klucel (hydroxypropylcellulose) (HPC)) of the same compound?
Answer: 90 % of control

Question: What about the T/C (dose: 35.0 mg/kg/injection, schedule: Q01DX009 (ip), vehicle: Klucel (hydroxypropylcellulose) (HPC)) of the same compound?
Answer: 104 % of control

Question: With `CC(C)NCc1ccccc1Sc1ccccc1CNC(C)C` as the compound, how does the T/C (dose: 100.0 mg/kg/injection, schedule: Q01DX001 (ip), vehicle: saline with Tween-80) read?
Answer: 103 % of control

Question: What about the T/C (dose: 100.0 mg/kg/injection, schedule: Q04DX002 (ip), vehicle: saline) of the same compound?
Answer: 103 % of control

Question: What does the source list for `O=C1NC(c2ccccc2)(c2ccccc2)C(=O)N1CCBr`?
Answer: T/C [4]: 105 % of control and 121 % of control; T/C (dose: 25.0 mg/kg/injection, schedule: Q01DX009 (ip), vehicle: saline): 105 % of control and 113 % of control; T/C [5]: 107 % of control and 113 % of control; T/C (dose: 50.0 mg/kg/injection, schedule: Q04DX003 (ip), vehicle: saline): 107 % of control

Question: Which results are given for `CCOC(=O)C1=S=C(SC)N(C)C1=O`?
Answer: T/C [6]: 106 % of control and 115 % of control; T/C [7]: 103 % of control and 116 % of control

Question: `O=C1c2cccnc2C(=O)c2c(O)ccc(O)c21` was tested. Which T/C (dose: 25.0 mg/kg/injection, schedule: Q01DX009 (ip), vehicle: saline with Tween-80) did it give?
Answer: 97 % of control

Question: What about the T/C [6] of the same compound?
Answer: 99 % of control

Question: And the T/C [7]?
Answer: 92 % of control

Question: What about the T/C [8] of the same compound?
Answer: 115 % of control

Question: With `C[C@]12CCC(=O)C=C1CC[C@H]1[C@@H]3CC[C@](O)(C(=O)CO)[C@@]3(C)C[C@H](O)[C@@]12F` as the compound, how does the T/C [1] read?
Answer: 104 % of control

Question: And the T/C [2]?
Answer: 109 % of control

Question: And the T/C [3]?
Answer: 109 % of control

Question: And the T/C (dose: 100.0 mg/kg/injection, schedule: Q01DX009 (ip), vehicle: Klucel (hydroxypropylcellulose) (HPC))?
Answer: 90 % of control

Question: What about the T/C (dose: 100.0 mg/kg/injection, schedule: Q04DX003 (ip), vehicle: Klucel (hydroxypropylcellulose) (HPC)) of the same compound?
Answer: 120 % of control

Question: And the T/C (dose: 200.0 mg/kg/injection, schedule: Q04DX003 (ip), vehicle: Klucel (hydroxypropylcellulose) (HPC))?
Answer: 115 % of control

Question: What about the T/C (dose: 400.0 mg/kg/injection, schedule: Q04DX003 (ip), vehicle: Klucel (hydroxypropylcellulose) (HPC)) of the same compound?
Answer: 90 % of control

Question: With `CC(C)NC(=O)N(C(=O)C(F)(F)F)C(C)C` as the compound, how does the T/C [6] read?
Answer: 105 % of control

Question: What about the T/C [7] of the same compound?
Answer: 94 % of control

Question: What about the T/C [8] of the same compound?
Answer: 95 % of control

Question: What does the source list for `CC(=O)Nc1onc(C)c1N`?
Answer: T/C [5]: 90 % of control; T/C [9]: 100 % of control; T/C [10]: 95 % of control

Question: Which results are given for `CCOC(=O)CCN1CC(C)OC(C)C1` (centres undefined)?
Answer: T/C [9]: 100 % of control; T/C [10]: 109 % of control; T/C (dose: 400.0 mg/kg/injection, schedule: Q01DX009 (ip), vehicle: saline): 100 % of control

Question: `CSc1ccc(NC(=O)Nc2ccc(N=Nc3ccccc3)cc2)cc1` was tested. Which T/C (dose: 42.5 mg/kg/injection, schedule: Q01DX009 (ip), vehicle: Klucel (hydroxypropylcellulose) (HPC)) did it give?
Answer: 100 % of control

Question: What about the T/C (dose: 85.0 mg/kg/injection, schedule: Q01DX009 (ip), vehicle: Klucel (hydroxypropylcellulose) (HPC)) of the same compound?
Answer: 100 % of control

Question: What about the T/C (dose: 170.0 mg/kg/injection, schedule: Q01DX009 (ip), vehicle: Klucel (hydroxypropylcellulose) (HPC)) of the same compound?
Answer: 100 % of control
